In data set [1] the target is T1, Glucosyltransferase-SI (Streptococcus mutans serotype c (strain ATCC 700610 / UA159)) (UniProt P13470).
T1 sequence (whole entry): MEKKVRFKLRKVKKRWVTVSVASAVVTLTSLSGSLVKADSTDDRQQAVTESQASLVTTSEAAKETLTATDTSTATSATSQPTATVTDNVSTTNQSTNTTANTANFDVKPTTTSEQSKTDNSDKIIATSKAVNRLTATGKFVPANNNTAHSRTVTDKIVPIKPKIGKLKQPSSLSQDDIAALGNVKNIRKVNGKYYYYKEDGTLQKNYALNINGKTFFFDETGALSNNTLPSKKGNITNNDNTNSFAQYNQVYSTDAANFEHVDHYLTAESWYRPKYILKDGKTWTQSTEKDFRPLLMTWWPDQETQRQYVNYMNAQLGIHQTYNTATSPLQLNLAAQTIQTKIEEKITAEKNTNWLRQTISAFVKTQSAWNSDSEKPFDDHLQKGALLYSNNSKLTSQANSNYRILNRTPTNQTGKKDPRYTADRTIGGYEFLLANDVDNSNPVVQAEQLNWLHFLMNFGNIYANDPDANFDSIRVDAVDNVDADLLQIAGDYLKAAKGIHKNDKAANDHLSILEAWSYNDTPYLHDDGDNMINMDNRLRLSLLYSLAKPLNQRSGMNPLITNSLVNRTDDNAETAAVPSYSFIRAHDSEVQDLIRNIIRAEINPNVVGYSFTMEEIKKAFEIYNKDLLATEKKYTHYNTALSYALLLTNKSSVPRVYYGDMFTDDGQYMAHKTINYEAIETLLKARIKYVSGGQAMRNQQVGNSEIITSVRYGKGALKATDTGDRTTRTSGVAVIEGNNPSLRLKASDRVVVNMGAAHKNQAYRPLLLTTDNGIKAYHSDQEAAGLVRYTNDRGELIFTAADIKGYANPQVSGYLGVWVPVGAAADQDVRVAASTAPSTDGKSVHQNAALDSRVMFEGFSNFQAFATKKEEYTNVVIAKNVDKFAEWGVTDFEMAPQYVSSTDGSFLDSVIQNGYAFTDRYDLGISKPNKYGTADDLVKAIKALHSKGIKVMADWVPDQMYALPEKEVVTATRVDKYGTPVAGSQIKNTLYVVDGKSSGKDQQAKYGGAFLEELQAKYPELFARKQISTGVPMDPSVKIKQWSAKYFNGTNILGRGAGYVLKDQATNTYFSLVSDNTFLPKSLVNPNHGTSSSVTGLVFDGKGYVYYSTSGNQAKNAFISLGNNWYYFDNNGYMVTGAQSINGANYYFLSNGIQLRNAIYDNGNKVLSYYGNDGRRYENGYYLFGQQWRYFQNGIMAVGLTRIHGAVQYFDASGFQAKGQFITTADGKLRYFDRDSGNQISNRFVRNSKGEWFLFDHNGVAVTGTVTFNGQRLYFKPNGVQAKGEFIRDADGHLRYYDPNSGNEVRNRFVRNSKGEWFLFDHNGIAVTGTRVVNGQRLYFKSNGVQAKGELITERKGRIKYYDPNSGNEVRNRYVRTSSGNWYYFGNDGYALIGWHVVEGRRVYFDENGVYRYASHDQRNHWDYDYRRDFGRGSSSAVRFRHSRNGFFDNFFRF
As to the kind of experiment: Inhibition of GtfC in Streptococcus mutans UA159 assessed as reduction in glucans level by Coomassie blue dye based SDS-PAGE analysis.

Data set [2] can be described thus: Solubility of compound in water. Particulars: water; read-out: solubility. It is filed as physicochemical.
Data set [3] is described as follows: Inhibition of Gtf in Streptococcus mutans UA159 assessed as reduction in glucans level by Coomassie blue dye based SDS-PAGE analysis.
For data set [4], the system named is Streptococcus mutans. The data set is described as follows: Antibiofilm activity against Streptococcus mutans UA159 infected in Fischer 344 rat assessed as reduction in colony forming units at 100 uM topically administered measured after 43 days. The data set is classed as functional, organism-based. To be noted: time 43.0 day.
In a further data set the test system is Streptococcus gordonii. The data set is described as follows: Bactericidal activity against Streptococcus gordonii DL1 assessed as reduction in bacterial growth at 100 uM after 24 hrs. It is filed as functional.
Data set [5] has as its system Streptococcus mutans. As to the kind of experiment: Antibiofilm activity against Streptococcus mutans UA159 infected in Fischer 344 rat assessed as sulcal score at 100 uM topically administered measured after 43 days. The data set is classed as functional, organism-based. To be noted: time 43.0 day.
Another data set relates to Streptococcus sanguinis. As to the kind of experiment: Bactericidal activity against Streptococcus sanguinis SK36 assessed as reduction in bacterial growth at 100 uM after 24 hrs. The data set is classed as functional.
Data set [6] has as its system Streptococcus mutans. As to the kind of experiment: Antibiofilm activity against Streptococcus mutans UA159 infected in Fischer 344 rat assessed as proximal surface score at 100 uM topically administered measured after 43 days. The data set is classed as functional, organism-based. Particulars: time 43.0 day.
The subject of data set [7] is Streptococcus mutans. The data set is described as follows: Antibiofilm activity against Streptococcus mutans UA159 infected in Fischer 344 rat assessed as buccal score at 100 uM topically administered measured after 43 days. To be noted: time 43.0 day. The data set is classed as functional, organism-based.
Data set [8] in a line: Toxicity in Fischer 344 rat infected with Streptococcus mutans UA159 assessed as reduction in body weight at 100 uM topically administered measured after 43 days. Particulars: in vivo, topical_or_ocular, 1032 h, time 43 day.

≈ marks a conversion by molar mass, not a printed value. Calls of active or inactive are those of the source. The calls are words filed in the database; no cut-off is given here.

Take `NC(=O)c1cccc(NC(=O)c2cnc3ccccc3c2)c1`: the inhibition entry in [1] is “Active”. Moreover, the solubility (in general, how much of the substance goes into solution per volume) in data set [2] is under 5 µg/mL.

Consider `NC(=O)c1ccccc1NC(=O)c1cc2cc([N+](=O)[O-])ccc2s1`, for which, in data set [1], the inhibition result is “Active”. Also, the IC50 (in general, the midpoint of a concentration-inhibition curve) in data set [3] is 10 µM. For the same molecule, in [2], the solubility was 10 µg/mL (≈ 29.3 µM). The outcome with Streptococcus mutans [4], in the data set on Streptococcus gordonii and in the data set with Streptococcus sanguinis was inactive. The result in the data set on Streptococcus mutans [5], with Streptococcus mutans [6] and with Streptococcus mutans [7] was Active.

Turning to `CC(C)(C)OC(=O)NCc1ccccc1NC(=O)c1cnc2ccccc2c1`, the inhibition entry in data set [1] is “Active”. Further, the solubility in data set [2] came to 15 µg/mL (≈ 39.7 µM).

As to `O=C(c1ccc(F)cc1)c1ccc(-c2[nH]c(-c3ccc([N+](=O)[O-])cc3O)nc2-c2ccccc2)cc1`, the inhibition entry in data set [1] was “Active”.

`NC(=O)c1ccccc1NC(=O)c1cnc2ccccc2c1`: the inhibition entry in [1] is “Active”. Also, in [2], the solubility worked out at 5 µg/mL (≈ 17.2 µM). The Activity result in data set [8] is on record as “Non-Toxic”. Further, the outcome in the data set on Streptococcus mutans [4], in the data set on Streptococcus gordonii and with Streptococcus sanguinis was inactive. In addition, the outcome in the data set on Streptococcus mutans [5], in the data set on Streptococcus mutans [6] and in the data set with Streptococcus mutans [7] was Active.

On to `COC(=O)c1ccc(NC(=O)c2cc3cc([N+](=O)[O-])ccc3s2)cc1`, for which the inhibition entry in data set [1] was “Active”. Further, the solubility in [2] is 10 µg/mL (≈ 28.1 µM).

For the molecule `CC(C)(C)OC(=O)NCc1ccccc1NC(=O)c1cc2cc([N+](=O)[O-])ccc2s1`, the inhibition entry in data set [1] was “Active”. In addition, the solubility in data set [2] is under 5 µg/mL.

These data come from ChEMBL document CHEMBL4673385, “Discovery of Potent Inhibitors of Streptococcus mutans Biofilm with Antivirulence Activity” (ACS Med Chem Lett, 2021).
